Experimental findings from PMC5742531, “Bio-Catalytic Structural Transformation of Anti-cancer Steroid, Drostanolone Enanthate with Cephalosporium aphidicola and Fusarium lini, and Cytotoxic Potential Evaluation of Its Metabolites against Certain Cancer Cell Lines” (Frontiers in Pharmacology, 2017) are described below.

The test system of series [1] is HeLa (human cervical carcinoma ATCC CCl-2). Put plainly: MTT cytotoxicity assay, HeLa cell line. The format is cell-based. As to conditions: 24 h treatment, HeLa cells, read-out: HeLa cell line (Cervical cancer) IC50 ± SD. Here is the method: (§1) The cytotoxicity of samples was measured against HeLa (human cervical carcinoma ATCC CCl-2), PC-3 (human prostate cancer ATCC CRL-1435), NCl-H460 (human lung carcinoma ATCC HTB-177), HCT116 (human colon cancer ATCC CCl-247), and 3T3 (control fibroblast normal ATCC CRL-1658) cell lines by using standard MTT assay. Cell lines were grown in DMEM F12 media, supplemented with 10% FBS under a 5% CO2 atmosphere at 37°C in an incubator.
(§2) The colorimetric assay MTT [3-(4, 5-dimethyl thiazol-2yl)-2, 5-diphenyl tetrazolium bromide] was used for the evaluation of cell metabolic activity. In this assay, the yellow MTT is reduced to purple formazon in the mitochondria of the living cells (Gerlier and Thomasset, [1986]). The more the living cells, the more the color and thus more absorbance is observed by colorimeter (Fesahat et al., [2015]). We have used this method to analyze the effect of our transformed products on cellular cytotoxicity against cancer cells. Around 10,000 cells of each cell line (HeLa, PC3, H460, HCT116 cancers, and 3T3 normal) were seeded in 96-well plates. After reaching 80–90% confluency, they were treated with various concentrations of compounds (25, 50, 75, 100, and 200 μM) for 24 h. All compounds were dissolved in sterile DMSO to make a 200 mM stock solution. The solution was filtered, and serial dilutions were made in growth medium. 600 μL of each dilution was used to treat 3 wells (triplicate of each) of 96 well plate i.e., 200 μL each. Each experiment was performed in three biological replicates. MTT was added, and incubated for 4 h. […] The Multiskan reader gives λmax at 540 nm in DMSO treated 3T3 fibroblast cells (that are more confluent in morphology) whereas in case of cancer cells, 570 nm gives λmax (Bonmati-Carrion et al., [2013]; Danihelová et al., [2013]). A broad range of epithelial carcinoma cell lines were used in this experiment where cisplatin was a common drug of choice. It targets DNA, interferes with cell division during mitosis and induces apoptosis (Eastman, [1999]). IC50 values were calculated to determine the minimum concentration required to kill 50% of the cells.
(§3) % Inhibition=100-(At-Ab)/(Ac-Ab) ×100% Cell survival=(At-Ab)/(Ac-Ab) ×100
(Tetrazolium assays rely on reduction of a dye to a coloured formazan, in cell work by metabolically active cells.)

In series [2] the test system is PC-3 (human prostate cancer ATCC CRL-1435). In words: MTT cytotoxicity assay, PC-3 cell line. The format is cell-based. The note with it: 24 h treatment, PC3 cells, read-out: PC3 cell line (Prostate cancer) IC50 ± SD. Here is the method: as §1, §2, §3
For series [3], the system named is 3T3 (control fibroblast normal ATCC CRL-1658). In words: MTT cytotoxicity assay, 3T3 normal cell line. It is filed as cell-based. The note with it: 3T3 normal cells, read-out: 3T3 cell line (Mouse fibroblast) IC50 ± SD. Here is the method:
as §1, §2, §3

Series [4] deals with NCl-H460 (human lung carcinoma ATCC HTB-177). In words: MTT cytotoxicity assay, H460 cell line. It is filed as cell-based. As to conditions: H460 cells, read-out: H460 cell line (Lung cancer) IC50 ± SD. Here is the method: as §1, §2, §3
In series [5] the test system is HCT116 (human colon cancer ATCC CCl-247). In words: MTT cytotoxicity assay, HCT116 cell line. It is filed as cell-based. As to conditions: HCT116 cells, read-out: HCT116 cell line (Colon cancer) IC50 ± SD. Here is the method:
as §1, §2, §3

[6] abbreviates: Mus musculus, NIH3T3, 24 h treatment.
[7] abbreviates: Homo sapiens, NCI-H460, 24 h treatment.
The mark [8] stands for this setting: Homo sapiens, HCT-116, 24 h treatment.

Like-named read-outs stand apart in the source and are kept apart here. Some results are limits rather than exact numbers.

In the case of `CCCCCCC(=O)OC1CCC2C3CCC4CC(=O)C(C)CC4(C)C3CCC12C` (centres unmarked) [Compound 1, drostanolone enanthate], the IC50 – broadly, the concentration that inhibits the measured activity by half – is 54.7 ± 1.6 µM in series [1] (Homo sapiens); 96.2 ± 3 µM in series [2] (Homo sapiens, PC-3, 24 h); over 150 µM in series [3] (setting [6]); 5 ± 1.2 µM in series [4] (setting [7]); 3.1 ± 3.2 µM in series [5] (setting [8]).
The matching figures for `C[C@@H]1C[C@@]2(C)[C@@H](CC[C@@H]3[C@@H]2CC[C@]2(C)[C@@H](O)CC[C@@]32O)C[C@@H]1O` [Compound 2, 2α-methyl-3α,14α,17β-trihydroxy-5α-androstane]: 64.3 ± 3 µM, 84.6 ± 6.4 µM, over 150 µM, 44.4 ± 2 µM and 39.4 ± 2 µM.
For the compound `C[C@@H]1C[C@@]2(C)[C@H](CC1=O)C[C@@H](O)[C@@H]1[C@@H]2CC[C@]2(C)C(=O)CC[C@@H]12` [Compound 3, 2α-methyl-7α-hydroxy-5α-androstan-3,17-dione], the melting point (in general, the temperature, or range, at which the solid turns liquid) was in the range of 230 to 234 °C. Besides, in series [1] (Homo sapiens), the IC50 came out at 58 ± 1 µM. Further, the IC50 in series [2] turned out to be 68.1 ± 1.2 µM. The IC50 in series [2] (Homo sapiens, PC-3, 24 h) was 68 ± 1.2 µM. Besides, in series [3] (setting [6]), the IC50 was over 150 µM. The IC50 in series [4] (setting [7]) was 16.7 ± 2.6 µM. For the same compound, the IC50 in series [5] (setting [8]) amounted to 42.8 ± 1.2 µM.
`C[C@@H]1C[C@@]2(C)[C@@H](CC[C@@H]3[C@@H]2CC[C@]2(C)[C@@H](O)CC[C@@H]32)C[C@@H]1O` [Compound 4, 2α-methyl-3α,17β-dihydroxy-5α-androstane] came in with a melting point of 242 to 245 °C. In addition, the IC50 in series [1] (Homo sapiens) was 49.5 ± 2.2 µM. Moreover, the 50% inhibitory concentration (IC50) in series [2] (Homo sapiens, PC-3, 24 h) was found to be 60.4 ± 0.9 µM. The IC50 in series [3] (setting [6]) was over 150 µM. In addition, the IC50 in series [4] (setting [7]) was 12.4 ± 2.3 µM. Further, in series [5] (setting [8]), the concentration for half-maximal inhibition (IC50) is 80.9 ± 1.6 µM.
In the case of `CC1=C[C@@]2(C)C(=CC1=O)CC[C@@H]1[C@@H]2CC[C@]2(C)C(=O)CC[C@@H]12` [Compound 5, 2-methylandrosta-1,4-diene-3,17-dione], the melting point is 198 to 202 °C. In addition, the IC50 in series [1] (Homo sapiens) is 39.8 ± 1.5 µM. Further, the IC50 in series [2] (Homo sapiens, PC-3, 24 h) amounted to 84 ± 3.1 µM. Further, the IC50 in series [3] (setting [6]) is over 150 µM. For the same compound, the IC50 in series [5] (setting [8]) was 30.4 ± 1.6 µM.
`CC1=C[C@@]2(C)C(=CC1=O)CC[C@@H]1[C@@H]2[C@H](O)C[C@]2(C)C(=O)CC[C@@H]12` [Compound 6, 2-methylandrosta-11α-hydroxy-1,4-diene-3,17-dione] showed a melting point of 230 to 234 °C. Besides, the IC50 in series [1] (Homo sapiens) came to 40.7 ± 0.9 µM. The IC50 in series [2] (Homo sapiens, PC-3, 24 h) stood at 58.4 ± 1.6 µM. For the same compound, the IC50 in series [3] (setting [6]) was over 150 µM. The IC50 in series [4] (setting [7]) came to 33.2 ± 1 µM. The IC50 in series [5] (setting [8]) turned out to be 45.9 ± 4.2 µM.
Take `CC1=C[C@@]2(C)C(=CC1=O)CC[C@@H]1[C@@H]2CC[C@]2(C)C(=O)CC[C@@]12O` [Compound 7, 2-methylandrosta-14α-hydroxy-1,4-diene-3,17-dione]: the melting point was 224 to 228 °C. Moreover, in series [1] (Homo sapiens), the IC50 was 43.9 ± 2.4 µM. Moreover, the 50% inhibitory concentration (IC50) in series [2] (Homo sapiens, PC-3, 24 h) came to 59.1 ± 2.6 µM. Further, in series [3] (setting [6]), the IC50 was over 150 µM. In series [4] (setting [7]), the IC50 came to 38.5 ± 2.8 µM. In addition, in series [5] (setting [8]), the IC50 came out at 46.6 ± 3 µM.
As for `CC1=C[C@@]2(C)[C@H](CC1=O)C[C@@H](O)[C@@H]1[C@@H]2CC[C@]2(C)C(=O)CC[C@@H]12` [Compound 8, 2-methylandrosta-7α-hydroxy-1-ene-3,17-dione], the melting point was in the range of 250 to 256 °C. Moreover, in series [1] (Homo sapiens), the IC50 stood at 19.6 ± 1.4 µM. Also, in series [2] (Homo sapiens, PC-3, 24 h), the IC50 was determined as 51.8 ± 3.4 µM. For the same compound, the IC50 in series [3] (setting [6]) is 74.6 ± 3.7 µM. In series [4] (setting [7]), the IC50 was determined as 26.4 ± 0.9 µM. Besides, the IC50 in series [5] (setting [8]) is 55 ± 1.9 µM.
With `C[C@@H]1C[C@@]2(C)[C@@H](CC[C@@H]3[C@@H]2CC[C@]2(C)[C@@H](O)CC[C@@H]32)CC1=O` [Compound 9, 2α -methyl-5α-androstane-17β-hydroxy-3-one], the IC50 in series [1] (Homo sapiens) was found to be 25.1 ± 1.6 µM; in series [2] (Homo sapiens, PC-3, 24 h), 57.8 ± 3.2 µM; in series [3] (setting [6]), 62.1 ± 1.2 µM; in series [4] (setting [7]), 31.8 ± 1.2 µM; in series [5] (setting [8]), 2.8 ± 0.2 µM.
As for `N.N.[Cl][Pt][Cl]` [cisplatin, reference compound], the half-inhibitory concentration (IC50) in series [1] was determined as 40.1 ± 2 µM; in series [2] it was 76.5 ± 1.2 µM; in series [3] (24 h treatment), 42.7 ± 0.8 µM; in series [4] (24 h treatment), 22.2 ± 2.1 µM; in series [5] (24 h treatment), 11.2 ± 3.03 µM.
